From paper PMC2362650, “Phase I and pharmacokinetic study of the topoisomerase II catalytic inhibitor fostriecin” (British Journal of Cancer, 1999)

Columns and labels:
solid tumour = assay: Tumour response in phase I patients; format: in vivo, human; conditions: 2-20 mg m-2 day-1, days 1-5 every 4 weeks; 10 patients with measurable disease
Description: (§1) Fostriecin (CI-920) is a topoisomerase (topo) II catalytic activity inhibitor (Boritzki et al, 1988) (Figure 1). This novel class of topo II-targeting drugs is considered of potential value for treatment of patients with tumours resistant to classic topo II poisons, including anthracyclines and podophyllotoxins (Cummings and Smyth, 1993). The nuclear enzyme topo II is essential for the regulation of DNA conformation (reviewed in Osheroff et al, 1991). Central in its action is the formation of a complex with DNA. Stabilization of this complex by topo II poisons induces DNA damage and cell death (Froelich-Ammon and Osheroff, 1995). Decreased complex formation due to decreased topo II levels is considered to be an important mechanism of tumour-resistance to topo II poisons (Beck and Danks, 1991). The topo II catalytic inhibitor fostriecin is expected to have increased activity against tumour cells with low topo II levels and this was confirmed in in vitro studies (De Jong et al, 1991). […] Drug pharmacokinetics was analysed with high performance liquid chromatography with UV-detection. […] A metabolite, most probably dephosphorylated fostriecin, was detected in plasma and urine. […]

GLC4/VM20x [1] = test system: GLC4/VM20x; design: method as in Withoff et al, 1996; conditions: ref Withoff et al, 1996; cited from earlier work
GLC4/VM20x [2] = assay: Microtiterwell tetrazolium growth-inhibition assay, medium with 40% pooled human plasma; format: cell-based; conditions: GLC4, 96 h; 4 days; medium with 40% human plasma; 95% CI 5.3-6.5
Description: as §1

[3] = design: method as in Clinical Brochure Fostriecin, 1991; conditions: mouse; 5-day schedule; ref Clinical Brochure Fostriecin, 1991; cited from earlier work

In the case of `C[C@@](O)(/C=C/[C@H]1CC=CC(=O)O1)[C@@H](C[C@@H](O)\C=C/C=C\C=C\CO)OP(=O)(O)O` [fostriecin], the tumour responses (solid tumour) is listed as “No tumour responses”, the “sensitivity of GLC4/VM20x relative to GLC4” value (GLC4/VM20x [1]) is listed as 1.7 times and the IC50 (GLC4/VM20x [2]) is listed as 5.9 µM. For the same molecule, the LD10 [3] was 120 mg m-2 day-1.
